Source: patent publication US20240109918A1, “HETEROCYCLIC COMPOUNDS AND USES THEREOF” (Kumquat Biosciences Inc., priority 2022, published 2024)

What was measured:
[1] = target: T1, KRASwt (Homo sapiens, UniProt P01116); test: Bio-Biochem-PPI-HTRF Ras-SOS1 interaction assay (KRAS wt); type: biochemical; settings: 5 nM
T1 construct: made in house; host or cells: E. coli BL21 (DE3)
Summary of the method: (§1)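 Compounds tested in duplicate (10 μM to 0.01 μM) for disruption of His-hSOS1 binding to GST-tagged wild-type or G12D K-Ras in HEPES pH 7.4 buffer. TR-FRET read (Eu donor, XL665 acceptor) after about 10 min or longer; IC50 derived from the 665/620 nm emission ratio.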

[2] = target: T2, KRASG12D (Homo sapiens, UniProt P01116, G12D); test: Bio-Biochem-PPI-HTRF Ras-SOS1 interaction assay (KRAS G12D); type: biochemical; settings: 5 nM
T2 construct: made in house; host or cells: E. coli BL21 (DE3)
Summary of the method: as §1

T1 sequence (P01116 1-188 isoform P01116-2): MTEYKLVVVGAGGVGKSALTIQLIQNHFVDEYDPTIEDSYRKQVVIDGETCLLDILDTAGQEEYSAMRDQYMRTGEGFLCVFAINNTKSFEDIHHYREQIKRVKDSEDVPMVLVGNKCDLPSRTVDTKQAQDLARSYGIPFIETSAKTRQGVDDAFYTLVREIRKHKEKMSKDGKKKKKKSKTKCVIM
T2 sequence (P01116 1-188 isoform P01116-2 G12D): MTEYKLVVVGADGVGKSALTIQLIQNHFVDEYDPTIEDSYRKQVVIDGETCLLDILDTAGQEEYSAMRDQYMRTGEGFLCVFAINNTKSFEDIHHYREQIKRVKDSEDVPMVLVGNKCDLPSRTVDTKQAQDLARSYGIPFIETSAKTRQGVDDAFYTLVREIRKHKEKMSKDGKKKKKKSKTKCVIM

N#Cc1c(N)sc2c(F)ccc(-c3c(Cl)cc4c(N5CCCCC6(CN(C(=O)c7ccnn7CCC(F)F)C6)C5)nc(OC[C@@]56CCCN5C[C@H](F)C6)nc4c3F)c12 [compound 341, 2-amino-4-(6-chloro-4-(2-(1-(3,3-difluoropropyl)-1H-pyrazole-5-carbonyl)-2,6-diazaspiro[3.6]decan-6-yl)-8-fluoro-2-(((2R,7aS)-2-fluorotetrahydro-1H-pyrrolizin-7a(5H)-yl)methoxy)quinazolin-7-yl)-7-fluorobenzo[b]thiophene-3-carbonitrile]
IC50 [1]: < 5 µM
IC50 [2]: < 5 µM

C#Cc1c(F)ccc2cc(O)cc(-c3ncc4c(N5CCOCC6(CN(C(=O)[C@@H]7CC7(F)F)C6)C5)nc(OC[C@@]56CCCN5C[C@H](F)C6)nc4c3F)c12 [compound 301, ((S)-2,2-difluorocyclopropyl) (9-(7-(8-ethynyl-7-fluoro-3-hydroxynaphthalen-1-yl)-8-fluoro-2-(((2R,7aS)-2-fluorotetrahydro-1H-pyrrolizin-7a(5H)-yl)methoxy)pyrido[4,3-d]pyrimidin-4-yl)-6-oxa-2,9-diazaspiro[3.6]decan-2-yl)methanone]
IC50 [1]: < 5 µM
IC50 [2]: < 5 µM

N#Cc1c(N)sc2c(F)ccc(-c3c(Cl)cc4c(N5CCCCC6(CN(C(=O)N7CCOCC7)C6)C5)nc(OC[C@@]56CCCN5C[C@H](F)C6)nc4c3F)c12 [compound 325, 2-amino-4-(6-chloro-8-fluoro-2-(((2R,7aS)-2-fluorotetrahydro-1H-pyrrolizin-7a(5H)-yl)methoxy)-4-(2-(morpholine-4-carbonyl)-2,6-diazaspiro[3.6]decan-6-yl)quinazolin-7-yl)-7-fluorobenzo[b]thiophene-3-carbonitrile]
IC50 [1]: < 5 µM
IC50 [2]: < 5 µM

N#Cc1c(N)sc2c(F)ccc(-c3c(Cl)cc4c(N5CCC(F)(F)CC6(CN(C(=O)C78CC(F)(C7)C8)C6)C5)nc(OC[C@@]56CCCN5C[C@H](F)C6)nc4c3F)c12 [compound 229, 2-amino-4-(6-chloro-4-(9,9-difluoro-2-(3-fluorobicyclo[1.1.1]pentane-1-carbonyl)-2,6-diazaspiro[3.6]decan-6-yl)-8-fluoro-2-(((2R,7aS)-2-fluorotetrahydro-1H-pyrrolizin-7a(5H)-yl)methoxy)quinazolin-7-yl)-7-fluorobenzo[b]thiophene-3-carbonitrile]
IC50 [1]: < 5 µM
IC50 [2]: < 5 µM

N#Cc1c(N)sc2c(F)ccc(-c3c(Cl)cc4c(N5CCCCC6(CN(C(=O)C(F)(F)C(F)(F)F)C6)C5)nc(OC[C@@]56CCCN5C[C@H](F)C6)nc4c3F)c12 [compound 202, 2-amino-4-(6-chloro-8-fluoro-2-(((2R,7aS)-2-fluorotetrahydro-1H-pyrrolizin-7a(5H)-yl)methoxy)-4-(2-(2,2,3,3,3-pentafluoropropanoyl)-2,6-diazaspiro[3.6]decan-6-yl)quinazolin-7-yl)-7-fluorobenzo[b]thiophene-3-carbonitrile]
IC50 [1]: < 5 µM
IC50 [2]: < 5 µM

N#Cc1c(N)sc2c(F)ccc(-c3c(Cl)cc4c(N5CCC6(CCN(C(=O)C7CC7(F)F)C6)CC5)nc(OC[C@@]56CCCN5C[C@H](F)C6)nc4c3F)c12 (stereo partly drawn) [compound 349, 2-amino-4-(6-chloro-4-(2-(2,2-difluorocyclopropane-1-carbonyl)-2,8-diazaspiro[4.5]decan-8-yl)-8-fluoro-2-(((2R,7aS)-2-fluorotetrahydro-1H-pyrrolizin-7a(5H)-yl)methoxy)quinazolin-7-yl)-7-fluorobenzo[b]thiophene-3-carbonitrile]
IC50 [1]: < 5 µM
IC50 [2]: < 5 µM

C#Cc1c(F)ccc2cc(O)cc(-c3ccc4c(N5CCOC6(CNC6)C5)nc(OC[C@@]56CCCN5C[C@H](F)C6)nc4c3F)c12 [compound 158, 5-ethynyl-6-fluoro-4-(8-fluoro-2-(((2R,7aS)-2-fluorotetrahydro-1H-pyrrolizin-7a(5H)-yl)methoxy)-4-(5-oxa-2,8-diazaspiro[3.5]nonan-8-yl)quinazolin-7-yl)naphthalen-2-ol]
IC50 [1]: < 5 µM
IC50 [2]: < 5 µM

Nc1nc2c(-c3c(Cl)cc4c(N5CCOC6(CCNCC6)C5)nc(OCC56CCCN5C[C@H](F)C6)nc4c3F)ccc(F)c2s1 (stereo partly drawn) [compound 129, 4-(6-chloro-8-fluoro-2-(((2R)-2-fluorotetrahydro-1H-pyrrolizin-7a(5H)-yl)methoxy)-4-(1-oxa-4,9-diazaspiro[5.5]undecan-4-yl)quinazolin-7-yl)-7-fluorobenzo[d]thiazol-2-amine]
IC50 [1]: < 5 µM
IC50 [2]: < 5 µM

N#Cc1c(N)sc2c(F)ccc(-c3c(Cl)cc4c(N5CCCCC6(CN(C(=O)NC7(C(F)(F)F)CC7)C6)C5)nc(OC[C@@]56CCCN5C[C@H](F)C6)nc4c3F)c12 [compound 289, 6-(7-(2-amino-3-cyano-7-fluorobenzo[b]thiophen-4-yl)-6-chloro-8-fluoro-2-(((2R,7aS)-2-fluorotetrahydro-1H-pyrrolizin-7a(5H)-yl)methoxy)quinazolin-4-yl)-N-(1-(trifluoromethyl)cyclopropyl)-2,6-diazaspiro[3.6]decane-2-carboxamide]
IC50 [1]: < 5 µM
IC50 [2]: < 5 µM

N#Cc1c(N)sc2c(F)ccc(-c3c(Cl)cc4c(N5CCC(O)CC6(CN(C(=O)[C@@H]7CC7(F)F)C6)C5)nc(OC[C@@]56CCCN5C[C@H](F)C6)nc4c3F)c12 (stereo partly drawn) [compound 249, 2-amino-4-(6-chloro-4-(2-((S)-2,2-difluorocyclopropane-1-carbonyl)-9-hydroxy-2,6-diazaspiro[3.6]decan-6-yl)-8-fluoro-2-(((2R,7aS)-2-fluorotetrahydro-1H-pyrrolizin-7a(5H)-yl)methoxy)quinazolin-7-yl)-7-fluorobenzo[b]thiophene-3-carbonitrile]
IC50 [1]: < 5 µM
IC50 [2]: < 5 µM

C[C@H](Oc1nc(N2CCCC3(CN(C(=O)C(F)(F)F)C3)C2)c2cc(Cl)c(-c3ccc(F)c4sc(N)c(C#N)c34)c(F)c2n1)[C@@H]1CCCN1C [compound 123, 2-amino-4-(6-chloro-8-fluoro-2-((S)-1-((S)-1-methylpyrrolidin-2-yl)ethoxy)-4-(2-(2,2,2-trifluoroacetyl)-2,6-diazaspiro[3.5]nonan-6-yl)quinazolin-7-yl)-7-fluorobenzo[b]thiophene-3-carbonitrile]
IC50 [1]: < 5 µM
IC50 [2]: < 5 µM
